“And” between values parts separate entries of the source, which are not always exact repeats. Equal values may be shown once.
What was measured:
[1] = test system: human donor dispersed islet cells; assay: Insulin secretion from healthy human donor dispersed islet cells; assay type: cell-based; parameters: Insulin secretion: unit not given here
Protocol: Pancreata of nondiabetic C57BL/6J mice were digested using collagenase P (Roche Diagnostics, catalog 11213873001), and islets were manually picked up using a stereomicroscope (ZEISS Stemi 305). […] Isolated mouse islets or provided human islets were dispersed as described ([28]). Briefly, 100–120 islets were washed 2 times using modified HBSS, then dispersed in 600 μL Accutase (Innovative Cell Technologies, catalog AT-104) by gently pipetting up and down for 7 minutes at 37°C. […] Following refreshing of KRBH, cells were dispensed in 8 microfuge tubes (2,000 cells/tube) and treated with WCDD301, preclustered Ephrin-A5 Fc, or preclustered Fc in the presence or absence of the competitive inhibitor of EphA4 receptor, rhyncophylline ([60]) (MilliporeSigma, catalog SML2345). In the presence or absence of these effectors, secretion assay was performed sequentially as shown in Supplemental Table 5. […] Preclustering of Ephrin-A5 Fc was done by mixing Ephrin-A5 Fc or Fc alone (BioLegend, catalog 790102) with anti-Fc antibody (Invitrogen, catalog A16086) (1:10 molar ratio) 20 minutes before treatment ([62]). […] Shedding of cleaved EphA4 was measured from the cell culture medium. Experiments were performed by dispersion of 200 islets, and EphA4 levels in media were measured by EphA4 ELISA (ABclonal, catalog RK06572).
The Integrated Islet Distribution Program provided us human donor islets with their characteristics (Supplemental Table 6). Islets were centrifuged at 500g for 3 minutes, resuspended in CMRL 1066 medium (Gibco, catalog 1150-037) containing 11 mM glucose, and rested in an incubator overnight.
For the hormone secretion assay, islets or dispersed islet cells were adapted in KRBH buffer containing 11 mM glucose for 1 hour. Then, after 2 washes in HBSS containing 11 mM glucose, islets or cells were treated in the following sequential order in the presence or absence of WCDD301: incubation in KRBH (1 mM glucose, 30 minutes) followed by medium collection, incubation in KRBH (11 mM glucose, 30 minutes) followed by medium collection.

[2] = Plasma stability assay, human plasma; assay type: in vitro ADME; details: for Ln (% Remaining): human plasma, 37°C, Figure 5A
Protocol: Pooled frozen plasma of CD-1 mice (n = 20; catalog MSE00PLK2M2N, Beijing Vital River Laboratory Animal Technology) or humans (n = 6, catalog […]2P2N, Bioreclamation IVT), equal numbers of males and females, was thawed in a 37°C water bath, and residual clots were removed by centrifugation (500g for 5 minutes). Plasma (98 μL) was aliquoted in each well of 96-well reaction plates using an Apricot automation workstation. WCDD301 (100 μM) or propantheline bromide (100 μM, as a positive control) was added (2 μL/well) to sets of wells assigned to blank or time points (T0, T10, T30, T60, and T120 minutes) and incubated at 37°C. At each time point, the reaction was stopped by adding stop solution (500 μL; a mixture of 200 ng/mL of tolbutamide and labetalol in acetonitrile), mixed thoroughly, sealed, shaken (20 minutes), and centrifuged (1,750g, 4°C, 20 minutes). A total of 150 μL of the supernatant from each well of the reaction plate was transferred to its corresponding bioanalysis plate for LC-MS/MS analysis. The remaining level (%) of the WCDD301 was calculated using the following equation: remaining (%) = (PAR at each time point/PAR at T0) × 100. PAR stands for the peak area ratio of the WCDD301 versus internal standard.

diabetic NOD mice = assay: Daily food intake in NOD mice; assay type: in vivo, mouse; parameters: Daily food intake (Figure 7E): unit not given here; details: for Daily food intake (Figure 7E): Diabetic, WCDD301 treated
Protocol: We preweighed WCDD301 into microfuge tubes and reconstituted it using deionized water. Using a 10 μL pipette tip, we placed the calculated dose of WCDD301 (at the volume range of 1–1.5 μL) within the center of pearls. WCDD301 was placed into pearls 30–45 minutes before administration. For oral administration of pearls, we designed an applicator using a disposable plastic transfer pipette and syringe plunger lubricated with olive oil. Food intake and body weight in each experimental group (diabetic WCDD301-treated, diabetic placebo-treated, and nondiabetic placebo-treated NOD mice) were monitored daily for 4 weeks. Urine glucose was measured from individually caged NOD mice (nondiabetic placebo treated n = 2, diabetic placebo treated n = 2, and diabetic WCDD301 treated n = 4, 21–23 weeks old) with metabolic cages. Urine glucose was monitored every 24 hours for 10 days by semiquantitative measurements (P-STICKS, Millpledge Veterinary).

[3] = Glucose (1 mM), WCDD301 0.75 µM
[4] = Glucose (11 mM), WCDD301 0.75 µM
[5] = Glucose (11 mM), WCDD301 1.5 µM

Compound: CC(=O)OCC(N)(COC(C)=O)COC(C)=O [WCDD301, 2-(acetoxymethyl)-2-aminopropane-1,3-diyl diacetate]
- Effect on insulin secretion ([1]; 1, 3 or 6 hours exposure): transient effect
- Insulin secretion ([1]; 1 hour exposure, WCDD301 0.75 µM, 1 mM (first group), Figure 2D): 0.23 and 0.21 and 0.2
- Insulin secretion ([1]; 1 hour exposure, WCDD301 0.75 µM, head printed 1 mM (second group c4-c7), Figure 2D): 0.277 and 0.233 and 0.25
- Insulin secretion ([1]; 1 hour exposure, WCDD301 1.5 µM, 1 mM (first group), Figure 2D): 0.247 and 0.17 and 0.22
- Insulin secretion ([1]; 1 hour exposure, WCDD301 1.5 µM, head printed 1 mM (second group c4-c7), Figure 2D): 0.299 and 0.278 and 0.26
- Insulin secretion ([1]; 1 hour exposure, WCDD301 3 µM, 1 mM (first group), Figure 2D): 0.133 and 0.134 and 0.23
- Insulin secretion ([1]; 1 hour exposure, WCDD301 3 µM, head printed 1 mM (second group c4-c7), Figure 2D): 0.196 and 0.199 and 0.27
- Insulin secretion ([1]; 3 hours exposure, WCDD301 0.75 µM, 1 mM (first group), Figure 2E): 0.188 and 0.216 and 0.2
- Insulin secretion ([1]; 3 hours exposure, WCDD301 0.75 µM, head printed 1 mM (second group c4-c7), Figure 2E): 0.279 and 0.305 and 0.31
- Insulin secretion ([1]; 3 hours exposure, WCDD301 1.5 µM, 1 mM (first group), Figure 2E): 0.156 and 0.166 and 0.2
- Insulin secretion ([1]; 3 hours exposure, WCDD301 1.5 µM, head printed 1 mM (second group c4-c7), Figure 2E): 0.227 and 0.252 and 0.3
- Insulin secretion ([1]; 3 hours exposure, WCDD301 3 µM, 1 mM (first group), Figure 2E): 0.23 and 0.247 and 0.22
- Insulin secretion ([1]; 3 hours exposure, WCDD301 3 µM, head printed 1 mM (second group c4-c7), Figure 2E): 0.249 and 0.253 and 0.31
- Insulin secretion ([1]; 6 hours exposure, WCDD301 0.75 µM, 1 mM (first group), Figure 2F): 0.248 and 0.23 and 0.252
- Insulin secretion ([1]; 6 hours exposure, WCDD301 0.75 µM, head printed 1 mM (second group c4-c7), Figure 2F): 0.383 and 0.391 and 0.37
- Insulin secretion ([1]; 6 hours exposure, WCDD301 1.5 µM, 1 mM (first group), Figure 2F): 0.257 and 0.265 and 0.24
- Insulin secretion ([1]; 6 hours exposure, WCDD301 1.5 µM, head printed 1 mM (second group c4-c7), Figure 2F): 0.41 and 0.395 and 0.38
- Insulin secretion ([1]; 6 hours exposure, WCDD301 3 µM, 1 mM (first group), Figure 2F): 0.185 and 0.176 and 0.25
- Insulin secretion ([1]; 6 hours exposure, WCDD301 3 µM, head printed 1 mM (second group c4-c7), Figure 2F): 0.327 and 0.324 and 0.4
- Insulin secretion (Supplemental Figure 4A; quantity not given) [1, 3]: 14.24 and 14.812 and 14.5
- Insulin secretion (Supplemental Figure 4B; quantity not given) [1, 3]: 12.664 and 13.794 and 14
- Insulin secretion (Supplemental Figure 4C; quantity not given) [1, 3]: 11.67 and 7.26 and 14
- Insulin secretion (Supplemental Figure 4A; quantity not given) ([1]; Glucose (1 mM), WCDD301 1.5 µM): 17.532 and 20.466 and 12
- Insulin secretion (Supplemental Figure 4B; quantity not given) ([1]; Glucose (1 mM), WCDD301 1.5 µM): 15.67 and 15.802 and 13.5
- Insulin secretion (Supplemental Figure 4C; quantity not given) ([1]; Glucose (1 mM), WCDD301 1.5 µM): 13.328 and 14.218 and 10
- Insulin secretion (Supplemental Figure 4A; quantity not given) ([1]; Glucose (1 mM), WCDD301 3 µM): 16.564 and 14.55 and 11.5
- Insulin secretion (Supplemental Figure 4B; quantity not given) ([1]; Glucose (1 mM), WCDD301 3 µM): 18.692 and 16.896 and 14
- Insulin secretion (Supplemental Figure 4C; quantity not given) ([1]; Glucose (1 mM), WCDD301 3 µM): 12.61 and 13.59 and 9
- Insulin secretion (Supplemental Figure 4A; quantity not given) [1, 4]: 22.29 and 19.8308 and 21
- Insulin secretion (Supplemental Figure 4B; quantity not given) [1, 4]: 16.996 and 15.584 and 14.5
- Insulin secretion (Supplemental Figure 4A; quantity not given) [1, 5]: 29.994 and 17.548 and 22
- Insulin secretion (Supplemental Figure 4B; quantity not given) [1, 5]: 19.714 and 16.496 and 13
- Insulin secretion (Supplemental Figure 4A; quantity not given) ([1]; Glucose (11 mM), WCDD301 3 µM): 17.376 and 17.746 and 23
- Insulin secretion (Supplemental Figure 4B; quantity not given) ([1]; Glucose (11 mM), WCDD301 3 µM): 17.584 and 17.686 and 13
- Insulin secretion (Supplemental Figure 4C; quantity not given) ([1]; Glucose (11 mM), WCDD301 3 µM): 16.66 and 13.592 and 8.5
- half-life at 2 µM ([2]; both sexes, human, plasma): 4.82 h
- Stability in human plasma versus mouse plasma ([2]; human higher than mouse): > 2.7 fold
- Ln (% Remaining) ([2]; 10 min): -0.03128
- Ln (% Remaining) ([2]; 30 min): -0.148
- Ln (% Remaining) ([2]; 60 min): 0.05816
- Ln (% Remaining) ([2]; 120 min): 0.01827
- Daily food intake (Figure 7E) (diabetic NOD mice; Day 1): 188.5 and 161.1 and 187.4 and 162.1
- Daily food intake (Figure 7E) (diabetic NOD mice; Day 2): 210.5 and 168.9 and 209.3 and 170
- Daily food intake (Figure 7E) (diabetic NOD mice; Day 3): 184.2 and 168.9 and 183.1 and 170
- Daily food intake (Figure 7E) (diabetic NOD mice; Day 4): 192.5 and 167.7
- Daily food intake (Figure 7E) (diabetic NOD mice; Day 7): 203.2 and 168.3 and 202 and 169.4
- Daily food intake (Figure 7E) (diabetic NOD mice; Day 8): 200 and 184.4 and 198.8 and 185.5
- Daily food intake (Figure 7E) (diabetic NOD mice; Day 9): 226.3 and 184.4 and 225 and 185.5
- Daily food intake (Figure 7E) (diabetic NOD mice; Day 10): 211.6 and 161.9 and 188.3 and 170.8
- Daily food intake (Figure 7E) (diabetic NOD mice; Day 11): 185.1 and 169.8 and 210.3 and 170.8
- Daily food intake (Figure 7E) (diabetic NOD mice; Day 12): 193.5 and 169.8 and 184 and 169.5
- Daily food intake (Figure 7E) (diabetic NOD mice; Day 13): 182.7 and 168.5 and 192.3 and 160.2
- Daily food intake (Figure 7E) (diabetic NOD mice; Day 14): 191.2 and 159.2 and 181.6
- Daily food intake (Figure 7E) (diabetic NOD mice; Day 15): 204.2 and 190.1 and 190 and 170.2
- Daily food intake (Figure 7E) (diabetic NOD mice; Day 16): 201 and 169.2 and 203 and 186.4
- Daily food intake (Figure 7E) (diabetic NOD mice; Day 17): 227.4 and 185.3 and 199.8 and 186.4
- Daily food intake (Figure 7E) (diabetic NOD mice; Day 18): 190.4 and 185.3 and 226.1 and 163.7
- Daily food intake (Figure 7E) (diabetic NOD mice; Day 19): 212.6 and 162.7 and 189.2 and 171.7
- Daily food intake (Figure 7E) (diabetic NOD mice; Day 20): 186.1 and 170.6 and 211.4 and 171.7
- Daily food intake (Figure 7E) (diabetic NOD mice; Day 21): 194.4 and 170.6 and 184.9 and 170.4
- Daily food intake (Figure 7E) (diabetic NOD mice; Day 22): 183.6 and 169.3 and 193.3 and 161
- Daily food intake (Figure 7E) (diabetic NOD mice; Day 23): 192.1 and 160 and 182.5 and 192.2
- Daily food intake (Figure 7E) (diabetic NOD mice; Day 24): 205.2 and 191 and 171
- Daily food intake (Figure 7E) (diabetic NOD mice; Day 25): 202 and 170 and 204 and 187.3
- Daily food intake (Figure 7E) (diabetic NOD mice; Day 26): 228.6 and 186.2 and 200.8 and 187.3
- Daily food intake (Figure 7E) (diabetic NOD mice; Day 27): 177.9 and 175.1 and 174 and 179
- Daily food intake (Figure 7E) (diabetic NOD mice; Day 28): 225.9 and 175.3 and 174.1 and 226.9
- Food intake, daily monitoring (diabetic NOD mice; diabetic WCDD301-treated mice): phenotypes similar to nondiabetic placebo-treated mice

Source: PMC10906223 (JCI Insight, 2024)
